# Laboratory results published in patent US9937214B2, “Lactobacillus crispatus and application thereof” (priority 2013, dated 2018).
# Positions of bridges follow the written chain, without caps; N, C: chain ends. Non-standard residues stand in square brackets, D forms with d. Residues, ends and D or L forms follow the SMILES beside them. *: point of attachment. Ileψ(thiazoline)Cys = CC[C@H](C)[C@H](N)C1=N[C@H](C(=O)*)CS1; dOrn = NCCC[C@@H](N)C(=O)O
# Test system: Lactobacillus crispatus 262-1
# Assay: Antibiotic sensitivity test, agar-diffusion paper-disc method; on Inhibition zone diameter: test concentration or dose not given here
# Assay type: cell-based
# Conditions: for Inhibition zone diameter: paper content/sheet per antibiotic as in Table 3; for Sensitivity determination: T0 generation, three levels: sensitivity, mediation, drug resistance, criteria of reference bacteria; for Sensitivity determination (passage stability test): embodiment 6
Compound,Inhibition zone diameter (T0 generation of the strain) [mm],Sensitivity determination,Inhibition zone diameter (T30 generation of the strain) [mm],Inhibition zone diameter (T50 generation of the strain) [mm],Sensitivity determination (passage stability test),further results
CC1(C)S[C@@H]2[C@H](NC(=O)[C@H](N)c3ccc(O)cc3)C(=O)N2[C@H]1C(=O)O [Amoxicillin],20,Sensitivity,24,23,mediation,Sensitivity determination (listed as amoxicillin): sensitivity
CC1(C)S[C@@H]2[C@H](NC(=O)[C@H](N)c3ccccc3)C(=O)N2[C@H]1C(=O)O [Ampicillin],24,Sensitivity,24,25,mediation,Sensitivity determination (listed as ampicillin): sensitivity
CC[C@H]1OC(=O)[C@H](C)[C@@H](O[C@H]2C[C@@](C)(OC)[C@@H](O)[C@H](C)O2)[C@H](C)[C@@H](O[C@@H]2O[C@H](C)C[C@H](N(C)C)[C@H]2O)[C@](C)(O)C[C@@H](C)CN(C)[C@H](C)[C@@H](O)[C@]1(C)O [Azithromycin],31,Sensitivity,31,30,,Sensitivity determination (listed as azithromycin): sensitivity
CC[C@H](C)[C@H](N)C1=N[C@H](C(=O)N[C@@H](CC(C)C)C(=O)N[C@H](CCC(=O)O)C(=O)N[C@H](C(=O)N[C@H]2CCCCNC(=O)[C@H](CC(N)=O)NC(=O)[C@@H](CC(=O)O)NC(=O)[C@H](Cc3cnc[nH]3)NC(=O)[C@@H](Cc3ccccc3)NC(=O)[C@H]([C@@H](C)CC)NC(=O)[C@@H](CCCN)NC2=O)[C@@H](C)CC)CS1 [Bacitracin] ({Ileψ(thiazoline)Cys}-L[dE]IK[dOrn]I[dF]H[dD]N; lactam 4-C),0,drug resistance,0,0,drug resistance,
CO/N=C(\C(=O)N[C@@H]1C(=O)N2C(C(=O)O)=C(CSc3nc(=O)c(=O)[nH]n3C)CS[C@H]12)c1csc(N)n1 [Ceftriaxone],29,Sensitivity,31,30,mediation,Sensitivity determination (listed as ceftriaxone): sensitivity
O=C(N[C@H](CO)[C@H](O)c1ccc([N+](=O)[O-])cc1)C(Cl)Cl [Chloramphenicol],35,Sensitivity,36,35,,Sensitivity determination (listed as chloromycetin): sensitivity
CCC[C@@H]1C[C@@H](C(=O)N[C@@H]([C@H]2O[C@H](SC)[C@H](O)[C@@H](O)[C@H]2O)[C@H](C)Cl)N(C)C1 [Clindamycin],35,,37,36,,
CC[C@H]1OC(=O)[C@H](C)[C@@H](O[C@H]2C[C@@](C)(OC)[C@@H](O)[C@H](C)O2)[C@H](C)[C@@H](O[C@@H]2O[C@H](C)C[C@H](N(C)C)[C@H]2O)[C@](C)(O)C[C@@H](C)C(=O)[C@H](C)[C@@H](O)[C@]1(C)O [Erythromycin],36,Sensitivity,41,39,,Sensitivity determination (listed as erythromycin): sensitivity
C[C@@H](O)[C@H]1C(=O)N2C(C(=O)O)=C(SCCN=CN)C[C@H]12 [Imipenem],40,,40,40,,
NC[C@H]1O[C@H](O[C@H]2[C@H](O)[C@@H](O[C@H]3O[C@H](CO)[C@@H](O)[C@H](N)[C@H]3O)[C@H](N)C[C@@H]2N)[C@H](O)[C@@H](O)[C@@H]1O [Kanamycin],0,,0,0,,
Cc1ncc([N+](=O)[O-])n1CCO [Metronidazole],0,drug resistance,0,0,drug resistance,
CCN1CCN(C(=O)N[C@@H](C(=O)N[C@@H]2C(=O)N3[C@@H]2SC(C)(C)[C@@H]3C(=O)O)c2ccccc2)C(=O)C1=O [Piperacillin],35,Sensitivity,37,35,,Sensitivity determination (listed as piperacillin): sensitivity
CN(C)[C@@H]1C(O)=C(C(N)=O)C(=O)[C@@]2(O)C(O)=C3C(=O)c4c(O)cccc4[C@@](C)(O)[C@H]3C[C@@H]12 [Tetracycline],38,,40,39,,
CN[C@H](CC(C)C)C(=O)N[C@H]1C(=O)N[C@@H](CC(N)=O)C(=O)N[C@H]2C(=O)N[C@H]3C(=O)N[C@H](C(=O)N[C@H](C(=O)O)c4cc(O)cc(O)c4-c4cc3ccc4O)[C@H](O)c3ccc(c(Cl)c3)Oc3cc2cc(c3O[C@@H]2O[C@H](CO)[C@@H](O)[C@H](O)[C@H]2O[C@H]2C[C@](C)(N)[C@H](O)[C@H](C)O2)Oc2ccc(cc2Cl)[C@H]1O [Vancomycin],26,Sensitivity,27,26,mediation,Sensitivity determination (listed as vancomycin): sensitivity
Cc1onc(-c2ccccc2)c1C(=O)N[C@@H]1C(=O)N2[C@@H]1SC(C)(C)[C@@H]2C(=O)O [oxacillin],9,Mediation,10,9,mediation,
Gentamicin,0,drug resistance,0,0,drug resistance,
Penicillin,24,Mediation,25,24,mediation,Sensitivity determination (listed as penicillin): mediation
